Measured values: US6204067A, “Methods of identifying modulators of the estrogen receptor” (Board of Trustees Operating Michigan State University, priority 1999, dated 2001)

Key:
[1] = biological target: T1, estrogen receptor (Homo sapiens, UniProt P03372); details: higher affinity; cited from earlier work
T1 sequence (P03372 1-595): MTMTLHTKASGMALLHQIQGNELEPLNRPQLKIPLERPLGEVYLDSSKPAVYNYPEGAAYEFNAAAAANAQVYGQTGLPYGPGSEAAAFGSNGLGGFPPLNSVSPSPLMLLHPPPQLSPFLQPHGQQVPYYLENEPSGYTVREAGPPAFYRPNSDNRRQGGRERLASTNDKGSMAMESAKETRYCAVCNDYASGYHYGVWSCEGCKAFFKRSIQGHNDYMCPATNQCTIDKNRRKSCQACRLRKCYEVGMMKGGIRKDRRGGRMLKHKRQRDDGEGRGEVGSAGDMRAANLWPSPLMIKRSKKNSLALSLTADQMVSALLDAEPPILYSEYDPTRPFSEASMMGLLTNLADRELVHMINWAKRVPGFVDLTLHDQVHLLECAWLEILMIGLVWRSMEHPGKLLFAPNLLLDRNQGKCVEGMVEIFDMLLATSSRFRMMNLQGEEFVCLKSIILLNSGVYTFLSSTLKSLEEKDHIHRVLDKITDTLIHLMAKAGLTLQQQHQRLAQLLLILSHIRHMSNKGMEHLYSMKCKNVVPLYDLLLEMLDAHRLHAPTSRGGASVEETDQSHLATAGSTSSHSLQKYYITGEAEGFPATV

[2] = test system: microsomes isolated from MCF-7/ADR cells; test: In vitro acidification of MCF-7/ADR microsomes (acridine orange quenching); assay type: biochemical; details: for rate of dissipation of pre-existing pH gradient: added 10 minutes after ATP, tamoxifen 8 μM, bafilomycin A1 100 nM
Procedure: Cells were grown in Minimal Essential. Medium supplemented with 10% Fetal Bovine Serum to confluence in 10 level Cell Factories (Nunc, Naperville, Ill.), trypsinized, washed 3× with cold PBS and lysed with a Dounce homogenizer (Pestle A) in 0.25 M sucrose, 20 mM HEPES (pH 7.4), 1 mM DTT, 1 mM EDTA, and 1× protease inhibitor mix (1 μg/ml leupeptin, 1 μ/ml pepstatin A, 1 μg/ml aprotinin, and 16 μM PMSF mixed to 100× before use). The homogenate was centrifuged twice for 10 minutes at 3000×g to remove unbroken cells and nuclei. The supernatant was layered over 20 ml of 0.5 M sucrose (20 mM HEPES (pH 7.4), 1 mM DTT, 1 mM EDTA, 1× protease inhibitor mix) and 1 ml of 2 M sucrose and centrifuged for 1 hour at 100,000 g (Beckman Ti60 Rotor). Microsomes are collected at the 0.5M and 2M interface.
To monitor acidification of the total microsomal fraction, the quenching of AO fluorescence was monitored essentially as described previously [Barasch et al., Nature 352:70-73 (1991)]. Acidic vesicles accumulate AO to high concentrations resulting in the self quenching of the dye and a decrease of the overall fluorescence. Fluorescence was measured on an SLM Aminco-Bowman series 2 luminescence spectrometer with λex =488 nm and λem =530 nm Microsomes (80 μg protein) were suspended in 2.5 ml vesicle buffer (125 mM KCl, 5 mM MgCl2, 20 mM HEPES (pH 7.4), 1 mM DTT, 1 mM EDTA, 2 mM NaN3), with 6 μM AO (5 mM stock in H2 O) in a cuvet. […] After equilibration for 30 minutes at 25° C. 1 mM Tris-ATP was added to begin acidification (100 mM stock, titrated to pH 7.4 with 1 M Tris-base before use). Twenty minutes later, 2.5 μM of nigericin (10 mM stock in EtOH) was added to dissipate any ΔpH formation.
Acridine orange (AO) was used as a probe for lumenal acidification. As vesicles acidify, they accumulate AO to self-quenching concentrations, and deplete the extra-vesicular free AO, resulting in a decrease in total fluorescence. Acidification was initiated by the addition of ATP to a purified microsomal fraction in the absence of cytosol (FIG. 1A, at t=300 sec). […] Nigericin, a K^+ /H^+ exchanger that rapidly dissipates pH gradients, was added at the end of each reaction (t=1500 seconds).

[3] = test system: yeast vacuoles; test: Acidification of yeast vacuoles (acridine orange); assay type: biochemical, S. cerevisiae
Procedure: Vacuoles from S. cerevisiae were prepared from the protease deficient strain BJ2407 (Yeast Genetic Stock Center, University of California, Berkeley) by sequential floatation through 12% and 8% Ficoll 400 cushion as described previously [Roberts et al., Methods Enzymol, 194:644-661 (1991)] with the single modification that 1× protease inhibitor mix and 1 mM DTT was included in each step. […] Acidification was measured using AO as described above. For acidification in chloride-free solution, gluconate or glutamate was used in vesicle buffer instead of chloride.
ATP (1.5 mM) was added at 50 sec to initiate acidification and at 400 sec nigericin (1 μM) was added to dissipate pH gradients.

[4] = Procedure: The lumenal pH (pHL) of liposomes was assayed with pyranine, a fluorescent dye with a pKa~7.3 and a λex =405 nm in its acid form (-3 charge) and a λex =455 nm in its basic form (-4 charge). To prepare pyranine loaded liposomes, lipids (2 mg POPC, 1 mg cholesterol) supplied in chloroform suspension were dried in a round bottom flask under argon for 2 hours. The lipids were then resuspended in acidic or alkaline liposome buffer (300 mM KCl, 20 mM MES, 20 mM MOPS, 20 mM Tricine titrated with KOH to either pH 6.2 or pH 8.1) containing 0.5 mM pyranine. The suspension was incubated at room temperature overnight, then freeze-thawed 6×. Unilamellar liposomies were prepared by extrusion 3× through 2 stacked 100 nm Nucleopore (Corning/Costar Scientific, Acton, Mass.) polycarbonate filters in an Avestin (Vancouver, BC) extruder at 600 PSI.
The pyranine fluorescence was calibrated as a function of pH by diluting the liposomes with pH 6.2 into a weakly buffered solution of identical pH (300 mM KCl, 1 mM MES, 1 mM MOPS, 1 mM Tricine, pH 6.2), 1 μM nigericin to allow rapid equilibration with external pH and 5 mM DPX to quench external pyranine. The ratio of the fluorescence emission at λem =510 nm was monitored with dual excitation wavelengths of λex =405 nm and λex =455 nm. Sequential aliquots of 0.1 mM glycylglycine, pH 8.4 were added to increase pH (See FIG. 5). The fluorescence was measured after each addition and the pH was measured using a pH meter. […] The cahiration curve for the liposomes of lumenal pH 8.1 was generated identically except sequential aliquots of 0.1 mM K-MES pH 5.0 were added for titration and the curve was generated between pH 8.1 and pH 6.4.
To measure the rate of pH dissipation of liposomes with lumenal pH=6.2, the liposomes were diluted in weakly buffered solution of identical pH as described above, but with no nigericin. […] The external pH was shifted to pH 7.3 by addition of 5 mM glycylglycine pH 8.4 and the fluorescence ratio monitored. After 10 minutes, 1 μM nigericin was added to dissipate the remaining pH gradient. The pHL was calculated using the equation pH=x*log(λex =405 nm/[…])+c, were x and c are constants from the least square fit of the titration curve. To measure the rate of pH dissipation of liposomes with pHL =8.1, the identical procedure was followed except 5 mM K-MES pH 5.0 was added to shift the external pH to 6.9.
Liposomes were loaded with pyranine, a hydrophilic, non-permeable fluorescent pH indicator to assay proton permeability. […] Two steps were taken to ensure that only pHL was measured and to permit the discrimination between dissipation of pH gradient and the lysis or dye leakage from liposomes.

[5] = Liposome chloride concentration (lucigenin); details: after addition of 50 mM KCl; tamoxifen 2, 4, 8 μM, valinomycin 1 μM

CC/C(=C(/c1ccc(OCCN(C)C)cc1)c1cccc(O)c1)c1ccccc1 [Droloxifene, 3-hydroxytamoxifen]
binding affinity to the estrogen receptor relative to tamoxifen [1]: 10-60 fold

CO[C@@H]1C[C@@H](C[C@H]2CC[C@H](C)[C@H]([C@@H](C)C(=O)O)O2)O[C@]2(O[C@](C)([C@H]3CC[C@@](C)([C@@H]4O[C@@H]([C@H]5O[C@@](O)(CO)[C@H](C)C[C@@H]5C)C[C@@H]4C)O3)C[C@H]2C)[C@@H]1C [nigericin]
rate of dissipation of pre-existing pH gradient [2]: significantly faster than tamoxifen

Cl.N [ammonium chloride]
effect of addition to pre-acidified vacuoles ([3]; added at 250 sec, tamoxifen 2 μM, ammonium 1 mM): step alkalinization | concentration relative to tamoxifen for similar inhibition ([3]; ammonium chloride 1 mM): 1000 fold | inhibition of vacuole acidification ([3]; pre-equilibrated, tamoxifen 2 μM or 8 μM, ammonium chloride 1 mM): slightly inhibited | effect of addition on pHL without pre-existing pH gradient ([4]; pHL 6.2 = external pH, tamoxifen 2 μM, 8 μM, NH4Cl 5 mM): alkalinization of the lumen

CC[C@@]1([C@@H]2O[C@@H]([C@H]3O[C@@](O)(CO)[C@H](C)C[C@@H]3C)C[C@@H]2C)CC[C@H]([C@]2(C)CC[C@]3(C[C@H](O)[C@@H](C)[C@@H]([C@@H](C)[C@@H](OC)[C@H](C)C(=O)O)O3)O2)O1 [monensin]
rate of dissipation of pre-existing pH gradient [2]: significantly faster than tamoxifen

CO/C1=C\C(C)=C\[C@@H](C)[C@@H](O)[C@@H](C)C/C(C)=C/C=C/[C@H](OC)[C@@H]([C@@H](C)[C@@H](O)[C@H](C)[C@@]2(O)C[C@@H](O)[C@H](C)[C@@H](C(C)C)O2)OC1=O [bafilomycin A1, Bafilomycin A1]
acidification blocked ([2]; 10 nM (one tenth of 100 nM), pre-treatment, FIG. 1A): 95% | rate of dissipation of pre-existing pH gradient [2]: much slower rate

CC(C)[C@@H]1NC(=O)[C@H](C)OC(=O)[C@@H](C(C)C)NC(=O)[C@@H](C(C)C)OC(=O)[C@H](C(C)C)NC(=O)[C@H](C)OC(=O)[C@@H](C(C)C)NC(=O)[C@@H](C(C)C)OC(=O)[C@H](C(C)C)NC(=O)[C@H](C)OC(=O)[C@@H](C(C)C)NC(=O)[C@@H](C(C)C)OC1=O [valinomycin]
effect on pHL after shift of external pH ([4]; pHL 6.2, external pH shifted to 7.3, tamoxifen 0.5 or 2 μM, NH4Cl 1 mM, FCCP 1 μM, valinomycin 1 μM): faster dissipation of the pH gradient than FCCP | rate of pH gradient dissipation, alkaline lumen ([4]; pHL 8.1, external pH shifted to 6.9, tamoxifen 0.5-8 μM, NH4Cl 5 mM, FCCP 1 μM, valinomycin 1 μM): greater dissipation of pH gradient than FCCP | rate of chloride influx into liposomes [5]: increased the rate of chloride equilibration
